Data as given in patent publication US11578300B2, “Test apparatus” (Hitachi High-Tech Corporation, priority 2014, dated 2023).
≈ marks a conversion by molar mass, not a printed value. One block for each molecule: values may come before it.

How the values were obtained:
Format in all cases: cell-based
[1] = tested on: E. coli (ATCC25922); assay: susceptibility test with respect to ampicillin by microscopic observation (bacteriological test apparatus)
Procedure: After the bacterial suspension is introduced into the culture plate 18, the bacterial suspension is in a state of being mixed with the culture liquid which is included in each of the wells, and the temperature controller 16 is set to a temperature of approximately 35° C. Culture is performed by performing incubation such that the temperature of each of the wells in the culture plate 18 is in the vicinity of the set temperature. Then, while performing the incubation, the bacteria included in each of the wells are monitored through the microscopic observation optical system. The microscopic observation (monitoring) may be performed for a set period of time from the start of the incubation till the end thereof by continuously monitoring the state of bacterial growth. Otherwise, a suitable time may be set and monitoring is performed every set time thereof so as to be able to be compared with the monitored result at the time of starting the incubation. In addition, similar to the bacteriological test apparatus in the related art, the turbidity of each of the wells may be measured through the turbidity measurement optical system while incubating the culture plate 18. The measured result may be compared with the monitored result of the microscopic observation optical system. FIGS. 16A to 18C are diagrams illustrating results of a susceptibility test with respect to ampicillin of E. coli (ATCC25922) performed by using the bacteriological test apparatus of the present invention. FIGS. 16A to 18C are images obtained by culturing the E. coli in Mueller-Hinton culture mediums respectively containing ampicillin having the concentrations of 0 μg/mL, 2 μg/mL, and 16 μg/mL, performing image processing of a line extracting filter and the like onto microscopic images respectively captured after (a) 0 hours, (b) 3 hours, and (c) 24 hours from the start of culture, and performing binarization. The target objects appearing black in FIGS. 16A to 18C are the E. coli. […] FIG. 19 is a graph obtained by calculating the areas of the E. coli in the images of FIGS. 16A to 18C and plotting the areas thereof periodically. […] In this manner, it was possible to obtain the MIC with respect to the ampicillin of the used E. coli based on the graph achieved by monitoring the change in the areas of the bacteria in the images. It could be confirmed that the antimicrobial susceptibility test which requires overnight culture in the related art could be carried out in a short time by using the bacteriological test apparatus of the present invention.

[2] = tested on: E coli (ATCC35218); assay: susceptibility test of E coli treated with cefazolin by microscopic observation (bacteriological test apparatus); conditions: for growth of the E coli in images / bacterial number in a microscopic image: after three hours; for bacterial number in a microscopic image: FIG. 22A; for average value of the areas per one bacterium: FIG. 22C
Procedure: After the bacterial suspension is introduced into the culture plate 18, the bacterial suspension is in a state of being mixed with the culture liquid which is included in each of the wells, and the temperature controller 16 is set to a temperature of approximately 35° C. Culture is performed by performing incubation such that the temperature of each of the wells in the culture plate 18 is in the vicinity of the set temperature. Then, while performing the incubation, the bacteria included in each of the wells are monitored through the microscopic observation optical system. The microscopic observation (monitoring) may be performed for a set period of time from the start of the incubation till the end thereof by continuously monitoring the state of bacterial growth. Otherwise, a suitable time may be set and monitoring is performed every set time thereof so as to be able to be compared with the monitored result at the time of starting the incubation. In addition, similar to the bacteriological test apparatus in the related art, the turbidity of each of the wells may be measured through the turbidity measurement optical system while incubating the culture plate 18. The measured result may be compared with the monitored result of the microscopic observation optical system. FIGS. 20A-20D and 21A-21D are diagrams illustrating results of a susceptibility test of E coli (ATCC35218) treated with cefazolin performed by using the bacteriological test apparatus of the present invention. FIGS. 20A to 20D are microscopic images which are obtained by culturing the E. coli in Mueller-Hinton culture mediums respectively containing cefazolin having concentrations of 0 μg/mL, 0.5 μg/mL, 1 μg/mL, and 2 μg/mL, and captured after three hours from the start of culture. The target objects vaguely appearing in the images are the bacteria. FIGS. 21A to 21D are images obtained by respectively performing image processing onto the images of FIGS. […], performing edge detection, and performing binarization thereafter. The target objects appearing black in FIGS. 21A-21D are the E. coli. […] FIGS. 22A-22F are graphs obtained by extracting the feature values of the bacteria from the image of FIGS. 20A-20D. FIG. 22A is a graph illustrating the bacterial number in a microscopic image. […] FIG. 22B is a graph illustrating the areas of the bacteria in the microscopic image. FIG. 22C is a graph illustrating the average values of the areas per one bacterium obtained based on FIGS. 22A and 22B. […] As it also could be confirmed in FIGS. 21A-21D, the facts thereof indicate that the bacteria are elongated due to effect of cefazolin. FIGS. 22D to 22F are graphs respectively showing the perimeter length, the circularity, and the solidity (an index showing how the shape is close to a circle) per one bacterium. As the results of the elongated bacteria, it could be confirmed that the perimeter length increased in FIG. 22D, the circularity defined through […] was lowered in FIG. 22E, and the solidity defined through the area/the projection area is lowered in FIG. 22F.

[3] = tested on: Enterococcus faecalis (ATCC29212); assay: susceptibility test with respect to levofloxacin by microscopic observation (bacteriological test apparatus); conditions: Mueller-Hinton culture medium, from areas of bacteria in images over time, read-out: minimum inhibitory concentration (MIC)
Procedure: After the bacterial suspension is introduced into the culture plate 18, the bacterial suspension is in a state of being mixed with the culture liquid which is included in each of the wells, and the temperature controller 16 is set to a temperature of approximately 35° C. Culture is performed by performing incubation such that the temperature of each of the wells in the culture plate 18 is in the vicinity of the set temperature. Then, while performing the incubation, the bacteria included in each of the wells are monitored through the microscopic observation optical system. The microscopic observation (monitoring) may be performed for a set period of time from the start of the incubation till the end thereof by continuously monitoring the state of bacterial growth. Otherwise, a suitable time may be set and monitoring is performed every set time thereof so as to be able to be compared with the monitored result at the time of starting the incubation. In addition, similar to the bacteriological test apparatus in the related art, the turbidity of each of the wells may be measured through the turbidity measurement optical system while incubating the culture plate 18. The measured result may be compared with the monitored result of the microscopic observation optical system. FIGS. 10A to 13D are diagrams illustrating the results obtained by applying the present invention. […]

SMILES: CC1(C)S[C@@H]2[C@H](NC(=O)[C@H](N)c3ccccc3)C(=O)N2[C@H]1C(=O)O [ampicillin]
areas of the E. coli in the images ([1]; ampicillin 2 μg/mL, FIG. 19 graph (ii)): increased with the lapse of time
growth of the E. coli in images ([1]; ampicillin 2 μg/mL, after 24 hours, FIG. 17C): grew after 24 hours
shape of the E. coli in images ([1]; ampicillin 2 μg/mL, after three hours, FIG. 17B): elongated states
areas of the E. coli in the images ([1]; ampicillin 16 μg/mL, FIG. 19 graph (iii)): seldom increased
growth of the E. coli in images ([1]; ampicillin 16 μg/mL, FIGS. 18A-18C): did not grow without being elongated

SMILES: Cc1nnc(SCC2=C(C(=O)O)N3C(=O)[C@@H](NC(=O)Cn4cnnn4)[C@H]3SC2)s1 [cefazolin]
growth of the E coli in images ([2]; cefazolin 0.5 μg/mL, FIG. 21B): grew after three hours
bacterial number in a microscopic image ([2]; cefazolin 0.5 μg/mL): increased through growth
average value of the areas per one bacterium ([2]; cefazolin 0.5 μg/mL, compared to no antibacterial agent): the area increased
average value of the areas per one bacterium ([2]; cefazolin 1 μg/mL): further increased
growth of the E coli in images ([2]; cefazolin 1 μg/mL, FIG. 21C): did not quite grow after three hours and was elongated
bacterial number in a microscopic image ([2]; cefazolin 1 μg/mL): did not quite grow
average value of the areas per one bacterium ([2]; cefazolin 2 μg/mL): further increased
growth of the E coli in images ([2]; cefazolin 2 μg/mL, FIG. 21D): did not quite grow after three hours and was elongated
bacterial number in a microscopic image ([2]; cefazolin 2 μg/mL): did not quite grow
perimeter length per one bacterium ([2]; elongated bacteria, concentration not given, FIG. 22D): increased
circularity per one bacterium ([2]; elongated bacteria, concentration not given, FIG. 22E): lowered
solidity per one bacterium ([2]; elongated bacteria, concentration not given, FIG. 22F): lowered

MIC [3]: 1 µg/mL (≈ 2.77 µM)
SMILES: C[C@H]1COc2c(N3CCN(C)CC3)c(F)cc3c(=O)c(C(=O)O)cn1c23 [levofloxacin]
